Data from patent publication US20100168112A1, “2-Substituted and 4-substituted aryl nitrone compounds” (RENOVIS, INC., priority 2004, published 2010).

How the values were obtained:
STZ-diabetic rats [1] = experiment: Diabetic neuropathy, mechanical allodynia (von Frey filaments); assay type: in vivo, rat; settings: 25 mg/kg, p.o., bid, x49 d
Procedure: Adult male Sprague Dawley (SD) rats weighing 250-300 gm (Charles River Laboratories, San Diego, Calif.) were used. The animal room was lighted artificially at a 12-hr light-dark cycle (from 7:00 A.M. to 7:00 P.M.) with water and food supply ad libitum. Animals were allocated randomly into groups. Forty-nine (49) days prior to the behavioral tests, rats received a bolus injection of STZ (75 mg/kg, i.v.). STZ was dissolved in 0.1 M sodium citrate buffer, pH 4.5 solution, at the concentration of 75 mg/ml. To ensure the development of hyperglycemia, their non-fasted levels of glucose in whole blood, obtained via tail veins, were evaluated, using a glocometer (Accucheck®, Roche Diagnostics, Palo Alto, Calif.), once a week. Animals failing to show hyperglycemic conditions (i.e., whole blood glucose>120 mg/dL) were removed from the study. Diabetic rats were treated orally with Compound 62 (5 mg/kg or 25 mg/kg, both bid) or vehicle (1 ml/kg, bid), starting the date of STZ-injection. Compound 62 was dissolved in vehicle, which is composed of 96% of 0.5% CMC and 4% of 10% Tween 80. As a control, a group of naive rats received oral Compound 62 (25 mg/kg, bid) or vehicle (1 ml/kg, bid) treatment. Each group had >12 rats. […]

STZ-diabetic rats [2] = experiment: Diabetic neuropathy, mechanical hyperalgesia (paw-withdrawal reflex test, Basile Analgesymeter); assay type: in vivo, Sprague Dawley (SD) rats; settings: p.o., bid; for PWT (paw-withdrawal threshold), mechanical hyperalgesia: STZ-diabetic rats, mean ± SEM
From the text: In this example, the ability of Compound 62 to produce beneficial effects in protecting against and/or reversing the pathology of neuropathy in a streptozotocin (STZ)-induced rat model of diabetes. To evaluate if chronic treatment with Compound 62 protects the diabetic animals from developing neuropathy, they were examined for mechanical hyperalgesia responses.
Adult male Sprague Dawley (SD) rats weighing 250-300 gm (Charles River Laboratories, San Diego, Calif.) were used. The animal room was lighted artificially at a 12-hr light-dark cycle (from 7:00 A.M. to 7:00 P.M.) with water and food supply ad libitum. Animals were allocated randomly into groups. Forty-nine (49) days prior to the behavioral tests, rats received a bolus injection of STZ (75 mg/kg, i.v.). STZ was dissolved in 0.1 M sodium citrate buffer, pH 4.5 solution, at the concentration of 75 mg/ml. To ensure the development of hyperglycemia, their non-fasted levels of glucose in whole blood, obtained via tail veins, were evaluated, using a glocometer (Accucheck®, Roche Diagnostics, Palo Alto, Calif.), once a week. Animals failing to show hyperglycemic conditions (i.e., whole blood glucose>120 mg/dL) were removed from the study. Diabetic rats were treated orally with Compound 62 (5 mg/kg or 25 mg/kg, both bid) or vehicle (1 ml/kg, bid), starting the date of STZ-injection. Compound 62 was dissolved in vehicle, which is composed of 96% of 0.5% CMC and 4% of 10% Tween 80. As a control, a group of naive rats received oral Compound 62 (25 mg/kg, bid) or vehicle (1 ml/kg, bid) treatment. Each group had >12 rats. Time-effect curves of the STZ diabetic rats (Compound 62 vs. Vehicle) were compared with each other, while curves of the naive rats (Compound 62 vs. Vehicle) were compared with each other. The comparisons were conducted, using two-way (group×time) repeated measures analysis of variance (ANOVA) followed by Fishers post-hoc test. A probability value of p<0.05 was considered as statistically significant.
Before the experiments, these rats were trained in the paw-withdrawal reflex test, using a Basile Analgesymeter (Ugo Basile, Biological Research Apparatus, Comerio VA, Italy), which applies a linearly increasing mechanical force to the dorsum of the rats hind paw. The training of mechanical nociceptive flexion reflex response was performed on lightly restrained rats, at 5-min intervals for 1 hr each day for a period of 5 days. On the day of the experiment, paw-withdrawal thresholds (PWT) (i.e., mechanical force that causes the animal to withdraw its paw from the stimulus) were measured at 5-min intervals for 1 hr. The mean was obtained from the average of the last 6 PWT readings. […]

CC(C)(C)/[N+]([O-])=C/c1ccc(S(C)(=O)=O)cc1 [Compound 62, N-tert-Butyl-C-[4-(methanesulfonyl)phenyl]nitrone]
effect on PWT / reversal of allodynia vs vehicle (in words) (STZ-diabetic rats [1]): significantly enhanced the PWT | PWT (von Frey), mechanical allodynia (STZ-diabetic rats [1]; mean ± SEM): 6.08 ± 0.94 GRAMS | significantly reversed mechanical hyperalgesia compared with vehicle-treated STZ-diabetic rats (in words) (STZ-diabetic rats [2]; 5 mg/kg, x49 d): not | reversal of mechanical hyperalgesia compared with vehicle-treated STZ-diabetic rats (in words) (STZ-diabetic rats [2]; 25 mg/kg, x49 d): significantly reversed mechanical hyperalgesia | PWT (paw-withdrawal threshold), mechanical hyperalgesia (STZ-diabetic rats [2]; 5 mg/kg, x49 d (low dose, 62L)): 70.29 ± 3.18 GRAMS | PWT (paw-withdrawal threshold), mechanical hyperalgesia (STZ-diabetic rats [2]; 25 mg/kg, x49 d (high dose, 62H)): 86.86 ± 4.79 GRAMS
